Laboratory results reported in patent US10183011B2, “Anti-depression compounds” (Board of Regents of the University of Texas System, priority 2009, dated 2019).

Columns and labels:
Format in all cases: in vivo, mouse
[1] = system: spinal cord motor neurons; test: Spinal motor neuron survival (ChAT) in G93A-SOD1 mice, treatment from disease onset (day 80); details: 20 mg/kg/day from day 80; days 90-120
Description: FIG. 34A and FIG. 34B. P7C3A20 and P7C3 block motor neuron cell death in the spinal cord when administered at the time of disease onset to G93A-SOD1 mutant mice. Treatment of G93A-SOD1 mutant mice with 20 mg/kg/d of P7C3A20, P7C3 or Dimebon, or the appropriate vehicle, was initiated on day 80. Five mice from each group were sacrificed on days 90, 100, 110 and 120. The number of spinal cord motor neurons per cubic millimeter of lumbar spinal cord was determined through immunohistochemical staining for ChAT and quantification with NIH Image J software. All images were analyzed blind to treatment group. Spinal cord motor neurons in G93A-SOD1 mutant mice died over time as expected. Spinal cord motor neuron cell death was blocked by administration of P7C3A20. P7C3 was intermediately protective, while Dimebon had no neuroprotective efficacy. (FIG. 34A) Representative staining of ChAT of one ventral horn from each of the 5 mice in each treatment group at 110 days. (FIG. 34B) Graph representation.
Based on the promising results of early (day 40) administration of P7C3 to G93A-SOD1 mutant mice, we next sought to determine whether P7C3A20, P7C3 or Dimebon could protect ventral horn spinal motor neurons when administered at the expected time of disease onset (day 80). We initiated administration of either P7C3, P7C3A20 or Dimebon, each at a dose of 20 mg/kg/day, and analyzed motor neuron cell survival by staining lumbar spinal sections for choline acetyltransferase (ChAT). ChAT, the enzyme that synthesizes the neurotransmitter acetylcholine, serves as a marker for spinal cord motor neurons. All sections were counted blind to treatment group in order to quantify motor neuron survival, and five mice for each treatment group were analyzed at 90, 100, 110 and 120 days. Each treatment group was compared to its own sibling-matched group that received the corresponding vehicle. […]

[2] = Plasma, brain and spinal cord levels in G93A-SOD1 study (LC/MS/MS); details: 20 mg/kg/day for 21 days; for spinal cord accumulation relative to other compound: six hours after last injection
Description: FIG. 37. Plasma, brain and spinal cord levels of P7C3A20, P7C3 and Dimebon. Five mice for each compound group were treated for 21 days with 20 mg/kg/day of the compound, starting on day 85. Blood, brain and spinal cord were harvested six hours after the last injection and compound levels were measured by LC/MS/MS. Concentrations are presented as mean±SEM.

G93A-SOD1 mutant mice = test: Walking gait (pawprint analysis) in G93A-SOD1 mice, treatment from day 80; details: 20 mg/kg/day from day 80
Description: FIG. 36A and FIG. 36B. P7C3A20 preserves walking gait when administered at the time of disease onset to G93A-SOD1 mutant mice. […] Front and back stride were collected as a straight line from back paw print to the following paw print. Back-front distance was collected as a straight line from back paw print to the corresponding front paw print. 20 measurements (10 on each side) for each parameter were measured per mouse, and 20 mice per group were evaluated at 90 and 118 day time points. All measurements were conducted blind to treatment group, and the student's t test was used for statistical comparison of a treatment group to its matched vehicle group. FIG. 36B—At 90 days, there were no differences between any groups in back stride, front stride and back-front distance. […] Back stride and front stride were preserved to near-normal levels in P7C3A20 treated mice on day 118. By day 132, P7C3 and Dimebon treated mice were too sick to participate in the task. At this time point, P7C3A20 treated mice continued to show normalized back stride and front stride levels.
Analysis of walking gait offers a second means of assessing motor limb strength and coordination in rodent models of ALS. We conducted this analysis in the same mice used for the accelerating rotarod task, at three time points: 90, 118 and 132 days. Briefly, the front paws of each test mouse were dipped in orange tempera paint, and the back paws in blue tempera paint. […] Key parameters of the pawprints were then manually measured, as described in Methods. […]
Five measurements were taken: front and back stride, front and back width, and front to back distance, as described in Current Protocols for Neuroscience. […] Width from paw print was measured by drawing a line at a 90 degree angle from the line connecting the stride previous and the paw being analyzed. The distance was recorded as length of line from paw to the stride line opposite the paw print. […]
Pawprints were recorded at 90, 118 and 132 days of age. […]

| SMILES | spinal motor neuron cell death [1] | entry into brain and spinal cord [2] | spinal cord accumulation relative to other compound [2] | walking gait (back stride, front stride, back-front distance) (G93A-SOD1 mutant mice) |
| --- | --- | --- | --- | --- |
| COc1cccc(NCC(F)Cn2c3ccc(Br)cc3c3cc(Br)ccc32)c1 (centres unmarked) [Example P7C3A20, N-(3-(3,6-dibromo-9H-carbazol-9-yl)-2-fluoropropyl)-3-methoxyaniline] | provided significant protection from spinal motor neuron cell death | able to enter both the brain and spinal cord | less than one-twentieth the concentration of P7C3 | helps preserve walking gait |
| OC(CNc1ccccc1)Cn1c2ccc(Br)cc2c2cc(Br)ccc21 (centres unmarked) [Example P7C3] | provided intermediate protection on days 100 (p=0.048) and 110 (p=0.01) | able to enter both the brain and spinal cord |  | none of these parameters in the walking gait analysis at 20 mg/kg/day were significantly improved |
| Cc1ccc2c(c1)c1c(n2CCc2ccc(C)nc2)CCN(C)C1 [Dimebon, 2,3,4,5-Tetrahydro-2,8-dimethyl-5-(2-(6-methyl-3-pyridyl)ethyl)-1H-pyrido(4,3-b)indole, reference compound] | indistinguishable from vehicle treatment groups | able to enter both the brain and spinal cord | comparable levels of spinal cord accumulation to P7C3A20 | none of these parameters in the walking gait analysis at 20 mg/kg/day were significantly improved |
